The values below come from ChEMBL document CHEMBL2203120, “Contribution to investigation of antimicrobial activity of styrylquinolines” (Bioorg Med Chem, 2012).

In brackets after ≈: the same amount, converted by molar mass. Where a SMILES comes first, the peptide text is derived from it. Bridges are numbered along the chain shown (N, C = ends). [ ]: non-standard residue; d: D form. The star is where a group is joined. Ileψ(thiazoline)Cys = CC[C@H](C)[C@H](N)C1=N[C@H](C(=O)*)CS1; dOrn = NCCC[C@@H](N)C(=O)O

Data set [1] has as its system Staphylococcus aureus. Nature of the data set: Antimicrobial activity against Staphylococcus aureus CCM 4516/08 after 24 hrs by broth microdilution method. It is filed as functional. The following applies: CCM 4516/08, 24 h. For orientation: In broth dilution the organism is exposed to a series of concentrations in liquid medium.
Data set [2] concerns Staphylococcus aureus. Nature of the data set: Antimicrobial activity against Staphylococcus aureus CCM 4516/08 after 48 hrs by broth microdilution method. It counts as functional. The note with it: CCM 4516/08, 48 h.
The subject of data set [3] is Staphylococcus aureus. Nature of the data set: Antimicrobial activity against methicillin-resistant Staphylococcus aureus H 5996/08 after 48 hrs by broth microdilution method. It counts as functional. The note with it: H 5996/08, 48 h.
Data set [4] deals with Staphylococcus epidermidis. Nature of the data set: Antimicrobial activity against Staphylococcus epidermidis H 6966/08 after 48 hrs by broth microdilution method. It is filed as functional. The following applies: H 6966/08, 48 h.
Data set [5] relates to Staphylococcus aureus. Nature of the data set: Antimicrobial activity against methicillin-resistant Staphylococcus aureus H 5996/08 after 24 hrs by broth microdilution method. It is filed as functional. The following applies: H 5996/08, 24 h.
Data set [6] concerns Staphylococcus epidermidis. Nature of the data set: Antimicrobial activity against Staphylococcus epidermidis H 6966/08 after 24 hrs by broth microdilution method. It is filed as functional. The following applies: H 6966/08, 24 h.
The nature of data set [7]: Lipophilicity, log P of compound by RP-HPLC analysis. It is filed as physicochemical.
In the next data set the test system is Trichosporon beigelii. Nature of the data set: Antimicrobial activity against Trichosporon beigelii 1188 after 24 hrs by broth microdilution test. It is filed as functional. The note with it: Trichosporon beigelii, 1188, 24 h.
The subject of another data set is Lichtheimia corymbifera. Nature of the data set: Antimicrobial activity against Absidia corymbifera 272 after 24 hrs by broth microdilution test. The note with it: Lichtheimia corymbifera, 272, 24 h. It is filed as functional.
A further data set deals with Candida tropicalis. Nature of the data set: Antimicrobial activity against Candida tropicalis 156 after 24 hrs by broth microdilution test. The following applies: Candida tropicalis, 156, 24 h. It is filed as functional.
Another data set deals with Nakaseomyces glabratus. Nature of the data set: Antimicrobial activity against Candida glabrata 20/I after 24 hrs by broth microdilution test. It is filed as functional.
The subject of data set [8] is Candida albicans. Nature of the data set: Antimicrobial activity against Candida albicans ATCC 44859 after 24 hrs by broth microdilution test. It is filed as functional. The following applies: ATCC 44859, 24 h.
The subject of the next data set is Aspergillus fumigatus. Nature of the data set: Antimicrobial activity against Aspergillus fumigatus 231 after 24 hrs by broth microdilution test. It counts as functional. The following applies: Aspergillus fumigatus, 231, 24 h.
Data set [9] concerns Trichophyton mentagrophytes. Nature of the data set: Antimicrobial activity against Trichophyton mentagrophytes 445 after 72 hrs by broth microdilution test. The following applies: Trichophyton mentagrophytes, 445, 72 h. It is filed as functional.
A further data set has as its system Pichia kudriavzevii. Nature of the data set: Antimicrobial activity against Candida krusei ATCC 6258 after 24 hrs by broth microdilution test. It counts as functional. The note with it: ATCC 6258, 24 h.
The subject of data set [10] is Candida albicans. Nature of the data set: Antimicrobial activity against Candida albicans ATCC 44859 after 48 hrs by broth microdilution test. It is filed as functional. The following applies: ATCC 44859, 48 h.

Take `O=C(O)c1cn(C2CC2)c2cc(N3CCNCC3)c(F)cc2c1=O` [CIPROFLOXACIN]: the MIC90 was determined as 0.98 µM (≈ 0.325 µg/mL) against Staphylococcus aureus [1]; 0.98 µM (≈ 0.325 µg/mL) in the data set with Staphylococcus aureus [2]; 500 µM (≈ 166 µg/mL) in the data set with Staphylococcus aureus [3]; 250 µM (≈ 82.8 µg/mL) in data set [4]; 500 µM (≈ 166 µg/mL) in the data set on Staphylococcus aureus [5]; 250 µM (≈ 82.8 µg/mL) in [6].
On to `Oc1ccc(/C=C/c2ccc3c(Cl)cc(Cl)c(O)c3n2)c(O)c1`, for which the MIC90 in the data set on Staphylococcus aureus [1] was determined as 15.6 µM (≈ 5.44 µg/mL); against Staphylococcus aureus [2], 62.5 µM (≈ 21.8 µg/mL); against Staphylococcus aureus [3] it was 62.5 µM (≈ 21.8 µg/mL); in data set [4], 31.2 µM (≈ 10.9 µg/mL); in the data set with Staphylococcus aureus [5], 31.2 µM (≈ 10.9 µg/mL); in [6], 15.6 µM (≈ 5.44 µg/mL). Besides, the logP in data set [7] was determined as 4.68.
In the case of `CCOc1ccc(/C=C/c2ccc3ccccc3n2)cc1`, the MIC80 in the data set with Trichosporon beigelii, in the data set with Candida tropicalis, in the data set with Nakaseomyces glabratus, with Candida albicans [8] and in the data set with Pichia kudriavzevii was greater than 500 µM in each case. Besides, the MIC90 (in the data set with Staphylococcus aureus [1]; against Staphylococcus aureus [2]; with Staphylococcus aureus [3]; in [4]; against Staphylococcus aureus [5]; in data set [6]) was greater than 500 µM each time. In addition, the lipophilicity (logP) in data set [7] was 4.61. For the same molecule, the MIC50 (against Lichtheimia corymbifera; with Aspergillus fumigatus; in data set [9]) was greater than 500 µM each time.
`CC1(C)S[C@@H]2[C@H](NC(=O)COc3ccccc3)C(=O)N2[C@H]1C(=O)O` [PENICILLIN V]: the MIC90 against Staphylococcus aureus [1] was found to be 0.24 µM (≈ 0.0841 µg/mL); in the data set with Staphylococcus aureus [2] it was 0.24 µM (≈ 0.0841 µg/mL); in the data set on Staphylococcus aureus [3], 125 µM (≈ 43.8 µg/mL); in data set [4], 125 µM (≈ 43.8 µg/mL); in the data set with Staphylococcus aureus [5] it was 125 µM (≈ 43.8 µg/mL); in data set [6], 31.2 µM (≈ 10.9 µg/mL).
As for `Clc1ccccc1/C=C/c1ccc2cccc(Cl)c2n1`, the MIC80 with Trichosporon beigelii, against Candida tropicalis, against Nakaseomyces glabratus, against Candida albicans [8] and with Pichia kudriavzevii was greater than 500 µM each time. Besides, the MIC90 (against Staphylococcus aureus [1]; against Staphylococcus aureus [2]; against Staphylococcus aureus [3]; in data set [4]; against Staphylococcus aureus [5]; in data set [6]) was greater than 500 µM each time. The molecule further yielded a logP in data set [7] of 5.85. The MIC50 (in the data set on Lichtheimia corymbifera; in the data set on Aspergillus fumigatus; in data set [9]) was greater than 500 µM in each case.
With `CCOc1ccc(/C=C/c2ccc3cccc(O)c3n2)cc1`, the MIC80 is greater than 250 µM against Trichosporon beigelii; greater than 500 µM against Candida tropicalis; greater than 250 µM in the data set on Nakaseomyces glabratus; greater than 500 µM in the data set on Candida albicans [8]; greater than 500 µM in the data set with Pichia kudriavzevii. Moreover, the MIC90 (against Staphylococcus aureus [1]; against Staphylococcus aureus [2]; in the data set with Staphylococcus aureus [3]; in data set [4]; against Staphylococcus aureus [5]; in [6]) was greater than 500 µM throughout. In addition, in data set [7], the log partition coefficient (logP) amounted to 4.55. Further, the MIC50 (in the data set with Lichtheimia corymbifera; against Aspergillus fumigatus; in [9]) was greater than 500 µM in each case.
As to `Oc1c(Cl)cc(Cl)c2ccc(/C=C/c3ccccc3Cl)nc12`, the logP in data set [7] was 6.02.
On to `Oc1ccccc1/C=C/c1ccc2ccccc2n1`, for which the MIC80 in the data set on Trichosporon beigelii, in the data set with Candida tropicalis, in the data set on Nakaseomyces glabratus, in the data set on Candida albicans [8] and against Pichia kudriavzevii was greater than 125 µM in each case. Moreover, the MIC90 against Staphylococcus aureus [1] was greater than 250 µM; against Staphylococcus aureus [2], greater than 250 µM; in the data set with Staphylococcus aureus [3], greater than 250 µM; in [4] it was greater than 250 µM; with Staphylococcus aureus [5], greater than 250 µM; in [6] it was greater than 500 µM. In [7], this molecule registered a logP of 4.34. Moreover, the MIC50 (in the data set with Lichtheimia corymbifera; in the data set with Aspergillus fumigatus; in data set [9]) was greater than 125 µM each time.
Regarding `Clc1ccccc1/C=C/c1ccc2ccccc2n1`, the MIC80 against Trichosporon beigelii, with Candida tropicalis, in the data set on Nakaseomyces glabratus, against Candida albicans [8] and with Pichia kudriavzevii was greater than 500 µM in each case. In addition, the MIC90 (in the data set on Staphylococcus aureus [1]; with Staphylococcus aureus [2]; against Staphylococcus aureus [3]; in data set [4]; against Staphylococcus aureus [5]; in data set [6]) was greater than 500 µM throughout. Also, the logP in [7] is 5.25. Moreover, the MIC50 (in the data set with Lichtheimia corymbifera; in the data set with Aspergillus fumigatus; in data set [9]) was greater than 500 µM in each case.
For `CC[C@H](C)[C@H](N)C1=N[C@H](C(=O)N[C@@H](CC(C)C)C(=O)N[C@H](CCC(=O)O)C(=O)N[C@H](C(=O)N[C@H]2CCCCNC(=O)[C@H](CC(N)=O)NC(=O)[C@@H](CC(=O)O)NC(=O)[C@H](Cc3cnc[nH]3)NC(=O)[C@@H](Cc3ccccc3)NC(=O)[C@H]([C@@H](C)CC)NC(=O)[C@@H](CCCN)NC2=O)[C@@H](C)CC)CS1` [BACITRACIN] ({Ileψ(thiazoline)Cys}-L[dE]IK[dOrn]I[dF]H[dD]N; lactam 4-C), the MIC90 in the data set with Staphylococcus aureus [1] was 15.6 µM (≈ 22.2 µg/mL); with Staphylococcus aureus [2], 31.2 µM (≈ 44.5 µg/mL); in the data set on Staphylococcus aureus [3] it was 31.6 µM (≈ 45 µg/mL); in data set [4], 31.6 µM (≈ 45 µg/mL); against Staphylococcus aureus [5] it was 15.6 µM (≈ 22.2 µg/mL); in [6] it was 15.6 µM (≈ 22.2 µg/mL).
Take `CCOc1ccccc1/C=C/c1ccc2cccc(O)c2n1`: the MIC80 in the data set on Trichosporon beigelii, in the data set with Candida tropicalis, with Nakaseomyces glabratus, with Candida albicans [8] and in the data set on Pichia kudriavzevii was greater than 500 µM in each case. The MIC90 (in the data set with Staphylococcus aureus [1]; against Staphylococcus aureus [2]; in the data set with Staphylococcus aureus [3]; in [4]; in the data set on Staphylococcus aureus [5]; in [6]) was greater than 500 µM throughout. The same molecule displayed a logP in data set [7] of 4.55. For the same molecule, the MIC50 (in the data set with Lichtheimia corymbifera; in the data set on Aspergillus fumigatus; in data set [9]) was greater than 500 µM throughout.
`Oc1ccccc1/C=C/c1ccc2c(Cl)cc(Cl)c(O)c2n1` displayed a lipophilicity (logP) in data set [7] of 5.07.
With `Oc1ccc(/C=C/c2ccc3c(Cl)cc(Cl)c(O)c3n2)cc1O`, the MIC90 in the data set with Staphylococcus aureus [1] is 62.5 µM (≈ 21.8 µg/mL); against Staphylococcus aureus [2] it was 62.5 µM (≈ 21.8 µg/mL); against Staphylococcus aureus [3] it was 62.5 µM (≈ 21.8 µg/mL); in data set [4] it was 31.2 µM (≈ 10.9 µg/mL); in the data set with Staphylococcus aureus [5], 31.2 µM (≈ 10.9 µg/mL); in data set [6], 15.6 µM (≈ 5.44 µg/mL). In [7], this molecule showed a lipophilicity (logP) of 4.68.
As for `Oc1c(Cl)cc(Cl)c2ccc(/C=C/c3ccc(/C=C/c4ccc5c(Cl)cc(Cl)c(O)c5n4)cc3)nc12`, the MIC80 stood at 3.9 µM (≈ 2.16 µg/mL) with Trichosporon beigelii; 0.49 µM (≈ 0.272 µg/mL) in the data set on Nakaseomyces glabratus; 0.98 µM (≈ 0.543 µg/mL) against Candida albicans [8]; 3.9 µM (≈ 2.16 µg/mL) with Candida albicans [10]; 0.98 µM (≈ 0.543 µg/mL) against Pichia kudriavzevii. The MIC90 against Staphylococcus aureus [1] came out at 62.5 µM (≈ 34.6 µg/mL); against Staphylococcus aureus [2], 125 µM (≈ 69.3 µg/mL); in the data set on Staphylococcus aureus [3], 125 µM (≈ 69.3 µg/mL); in data set [4], 125 µM (≈ 69.3 µg/mL); against Staphylococcus aureus [5], 62.5 µM (≈ 34.6 µg/mL); in [6] it was 62.5 µM (≈ 34.6 µg/mL). This molecule had a logP in data set [7] of 8.88. Besides, the MIC50 (in the data set on Aspergillus fumigatus; in data set [9]) was 3.9 µM (≈ 2.16 µg/mL) each time.
Consider `Oc1cccc2ccc(/C=C/c3ccccc3Cl)nc12`, for which the MIC80 with Trichosporon beigelii, against Candida tropicalis, with Nakaseomyces glabratus, against Candida albicans [8] and in the data set with Pichia kudriavzevii was greater than 500 µM in each case. For the same molecule, the MIC90 (in the data set on Staphylococcus aureus [1]; with Staphylococcus aureus [2]; against Staphylococcus aureus [3]; in data set [4]; against Staphylococcus aureus [5]; in data set [6]) was greater than 500 µM throughout. Besides, the logP in [7] was 4.9. Also, the MIC50 (against Lichtheimia corymbifera; with Aspergillus fumigatus; in [9]) was greater than 500 µM throughout.

The MIC90 is the lowest concentration that inhibits either 90% of growth or 90% of the strains tested, depending on the study. What is called logP is a log measure of how a compound divides between an organic and an aqueous phase. A high value points to a more lipophilic compound. By MIC80 is commonly meant the lowest concentration that inhibits either 80% of growth or 80% of the strains tested, depending on the study. High values mean weaker potency, low ones greater potency. In general, MIC50 refers to the lowest concentration that inhibits either 50% of growth or 50% of the strains tested, depending on the study. High values mean weaker potency, low ones greater potency.
